According to US20230140983A1, “PYRIDAZINE DERIVATIVES FOR MODULATING NUCLEIC ACID SPLICING” (REMIX THERAPEUTICS INC., priority 2020, published 2023):
Where a name gives a salt, the structure may show the parent alone. Read-outs that look alike come from different tables or passages of the source.

Tests used:
Assay type in all cases: cell-based
HTT [1] = assay: Splicing assay (RT-qPCR on cell lysates) monitoring HTT splice variants: AJ and CJ mRNA; details: Table 8, concentration having 50% response
Procedure, shortened: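 Cell lysates were analysed by RT-qPCR, with ΔCt taken against a housekeeping gene and normalised to DMSO to give RQ by 2^(−ΔΔCt). Assay windows were set at 9 ΔCt for AJ and 3.5 ΔCt for CJ, and 4-parameter fits gave AC50 for the AJ increase and IC50 for the CJ decrease.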

Target C = assay: Gene panel canonical junction qPCR assay, Target C CJ mRNA; details: Table 9, CJ mRNA decrease, read-out: Target C IC50 (decrease in CJ mRNA levels)
Description: (§1) To set up 10 uL RT-qPCR reactions, cell lysates were transferred to 384-well qPCR plates containing the master mix according to the table below. The plates were sealed, gently vortexed, and spun down before the run. The volumes were adjusted accordingly in some instances where the reaction was carried in 20 uL. The table below summarizes the components of the RT-qPCR reactions:
(§2) The RT-qPCR reaction was performed using a QuantStudio (ThermoFisher) under the following fast cycling conditions. All samples and standards were analyzed at least in duplicate. In some instances, bulk room temperature (RT) step of 5-10 minutes was completed for all plates before proceeding with qPCR. The table below summarizes the PCR cycle:
(§3) The data analysis was performed by first determining the ΔCt vs the housekeeper gene. This ΔCt was then normalized against the DMSO control (ΔΔCt) and converted to RQ (relative quantification) using the 2^(−ΔΔCt) equation. The RQ were then converted to a percentage response by arbitrarily setting an assay window of 3.5 ΔCt for HTT-CJ and an assay window of 9 ΔCt for HTT-AJ. […] The percentage response was then fitted to the 4 parametric logistic equation to evaluate the concentration dependence of compound treatment. The increase in AJ mRNA is reported as AC50 (compound concentration having 50% response in AJ increase) while the decrease in CJ mRNA levels is reported as IC50 (compound concentration having 50% response in CJ decrease).
(§4) Additional studies were carried out for a larger panel of genes using the protocol provided above. The junction between flanking upstream and downstream exons was used to design canonical junction qPCR assays. At least one of the forward primer, reverse primer or the CY5-labeled 5′ nuclease probe (with 3′ quencher such as ZEN/Iowa Black FQ) was designed to overlap with the exon junction to capture the CJ mRNA transcript. BLAST was used to confirm the specificity of the probeset and parameters such as melting temperature, GC content, amplicon size, and primer dimer formation are considered during their design. Data for the decrease in CJ mRNA levels for three exemplary genes (HTT, SMN2, and Target C) analyzed in this panel are reported as IC50 (compound concentration having 50% response in CJ decrease).

SMN2 = assay: Gene panel canonical junction qPCR assay, SMN2 CJ mRNA; details: Table 9, CJ mRNA decrease, read-out: SMN2 IC50 (decrease in CJ mRNA levels)
Description: as §1, §2, §3, §4

HTT [2] = assay: Gene panel canonical junction qPCR assay, HTT CJ mRNA; details: Table 9, CJ mRNA decrease, read-out: HTT IC50 (decrease in CJ mRNA levels)
Description: as §1, §2, §3, §4

[3] = decrease in CJ mRNA, read-out: HTT CJ AC50
[4] = increase in AJ mRNA, read-out: HTT AJ AC50

Row | SMILES | AC50 (HTT [1]; [3]) [µM] | AC50 (HTT [1]; [4]) [µM] | IC50 (Target C) [µM] | IC50 (SMN2) [µM] | IC50 (HTT [2]) [µM]
1 | CN(c1ccc(-c2ccc(-c3cn[nH]c3)c3ncsc23)nn1)[C@H]1[C@@H]2CNC[C@@H]21 [Compound 205, (exo-)-N-methyl-N-[6-[4-(1H-pyrazol-4-yl)-1,3-benzothiazol-7-yl]pyridazin-3-yl]-3-azabicyclo[3.1.0]hexan-6-amine] | > 10 | > 10 | > 10 | 1 to 10 | > 10
2 | Cc1ncc(-c2ccc(-c3ccc(N(C)C4CC(C)(C)NC(C)(C)C4)nn3)c3ncsc23)o1 [Compound 201] | 1 to 10 | 1 to 10 | 1 to 10 | 0.1 to 1 | 1 to 10
3 | CCN(c1ccc(-c2ccc(-c3cn[nH]c3)c3ncsc23)nn1)C1CC(C)(C)NC(C)(C)C1 [Compound 225, N-ethyl-6-[4-(1H-pyrazol-4-yl)-1,3-benzothiazol-7-yl]-N-(2,2,6,6-tetramethylpiperidin-4-yl)pyridazin-3-amine] | 1 to 10 | 1 to 10 | 1 to 10 | 0.1 to 1 | 1 to 10
4 | c1nc2c(-c3cn[nH]c3)ccc(-c3ccc(N4C[C@H]5CNC[C@H]5C4)nn3)c2s1 [Compound 194, 7-{6-[(exo)-hexahydro-1H-pyrrolo[3,4-c]pyrrol-2-yl]pyridazin-3-yl}-4-(1H-pyrazol-4-yl)-1,3-benzothiazole hydrochloride] | 1 to 10 | > 10 | > 10 | 0.1 to 1 | 1 to 10
5 | Cc1[nH]ncc1-c1ccc(-c2ccc(N(C)C3CC(C)(C)NC(C)(C)C3)nn2)c2ncsc12 [Compound 176] | > 10 | 1 to 10 | > 10 | > 10 | > 10
6 | c1n[nH]cc1-c1ccc(-c2ccc(O[C@@H]3C[C@H]4CCC[C@@H](C3)N4)nn2)c2[nH]ncc12 [Compound 219] | 0.1 to 1 | 0.1 to 1 | 0.1 to 1 | < 0.1 | 0.1 to 1
7 | COc1cc(-c2ccc(-c3ccc(N(C)C4CC(C)(C)NC(C)(C)C4)nn3)c3ncsc23)ccn1 [Compound 177] | > 10 | > 10 | > 10 | 1 to 10 | > 10
8 | CN(c1ccc(-c2ccc(-c3cn[nH]c3)c3ncsc23)nn1)[C@@H]1C[C@H]2CC[C@@H](C1)N2 [Compound 213, (exo)-N-methyl-N-{6-[4-(1H-pyrazol-4-yl)-1,3-benzothiazol-7-yl]pyridazin-3-yl}-8-azabicyclo[3.2.1]octan-3-amine] | < 0.1 | < 0.1 | < 0.1 | < 0.1 | < 0.1
9 | CCN(c1ccc(-c2ccc(-c3cn[nH]c3)c3ncsc23)nn1)[C@@H]1C[C@H]2CCC[C@@H](C1)N2 [Compound 228] | < 0.1 | 0.1 to 1 | < 0.1 | < 0.1 | < 0.1
10 | CN(c1ccc(-c2ccc(-c3ccc(=O)[nH]c3)c3scnc23)nn1)C1CC(C)(C)NC(C)(C)C1 [Compound 180] | 0.1 to 1 | 0.1 to 1 | 0.1 to 1 | 0.1 to 1 | 0.1 to 1
11 | c1nc2c(-c3cn[nH]c3)ccc(-c3ccc(N4CC5(CCNCC5)C4)nn3)c2s1 [Compound 197] | 1 to 10 | 1 to 10 | > 10 | 1 to 10 | 1 to 10
12 | CC1(C)CC(Oc2ccc(-c3ccc(-c4cn[nH]c4)c4cn[nH]c34)nn2)CCN1 (stereo not drawn) [Compound 220] | 1 to 10 | > 10 | > 10 | 0.1 to 1 | 1 to 10
